Patent US20240174714A1, “TREATMENT OF SKIN DISORDERS” (priority 2021, published 2024)
≈ marks a conversion by molar mass, not a printed value. Where two headings read alike, the source gives them in different places. Square brackets hold non-standard residues; d marks the D form. Peptide text beside a SMILES is read from it. * marks the point of attachment. Ala(thiazol-2-yl) = N[C@@H](Cc1nccs1)C(=O)O; NH((S)CH(Me)CH2NMe2) = C[C@@H](CN(C)C)N*; NH(1-CH2NMe2-cBu) = CN(C)CC1(N*)CCC1; Gly(octyl) = CCCCCCCC[C@H](N)C(=O)O; Oxazole4CO(2-Me) = Cc1nc(C(=O)*)co1; Benzoyl(4-F) = O=C(c1ccc(F)cc1)*; hCha = N[C@@H](CCC1CCCCC1)C(=O)O; X8 = O=C(c1coc(-c2ccccc2)n1)*; X2 = C1CCN(CC2(N*)CCC2)CC1; Aib = CC(C)(N)C(=O)O; βAla = NCCC(=O)O

What was measured:
[1] = test system: intracellular Leishmania donovani MHOM-ET-67/L82 amastigotes; assay: In vitro antiprotozoal assay, intracellular amastigotes; assay type: cell-based; settings: intracellular amastigotes; read-out: L.don.InMac IC50
Method: (§3) The testing of the inventive compounds against Leishmania donovani (strain MHOM/ET/67/L82) was performed in 96 well plates at concentrations in serial dilutions. Tests were done in triplicate.

[2] = test system: axenic Leishmania donovani MHOM-ET-67/L82 amastigotes; assay: In vitro antiprotozoal assay, axenic amastigotes; assay type: cell-based; settings: axenic amastigotes; read-out: L.don.ax. IC50
Method: as §3

[3] = test system: rat myoblast cells (L6); assay: Cytotoxicity assay (Alamar Blue) on L6-cells; assay type: cell-based
Method: (§1) Tests were done in triplicate.
(§2) The plates were incubated for additional 2 h.

[4] = test system: Staphylococcus aureus ATCC BAA-1556, USA300 MRSA; assay: microbe, parasite or virus in culture; assay type: cell-based; settings: ATCC BAA-1556
Method: Pre-formulated compound solution was diluted in 100% DMSO to prepare a 1.6 mg/mL working stock solution. […] The concentration range was 0.032 to 32 μg/mL.

[5] = test system: Staphylococcus aureus ATCC 43300, MRSA; assay type: cell-based; settings: ATCC 43300, 18 h
Method: The antibacterial activity of inventive compounds was evaluated in duplicate in a further Minimum Inhibitory Concentration (MIC) assay.
Bacteria were cultured in Cation-adjusted Mueller Hinton broth (CAMHB) at 37° C. overnight. A sample of each culture was then diluted 40-fold in fresh broth and incubated at 37° C. for 1.5-3 h. The resultant mid-log phase cultures were diluted (CFU/mL measured by OD600), then added to each well of the compound containing plates, giving a cell density of 5×10^5 CFU/mL and a total volume of 50 μL. All the plates were covered and incubated at 37° C. for 18 h without shaking.
Samples were prepared in DMSO and serially diluted 2 fold 8 times. Each sample concentration was prepared in 384-well plates, non-binding surface plate (NBS; Corning 3640) for the bacterial strain ATCC 43300, MRSA. The final DMSO concentration was at a maximum of 0.5%.
Inhibition of bacterial growth was determined measuring absorbance at 600 nm (OD600), using a Tecan M1000 Pro monochromator plate reader. The percentage of growth inhibition was calculated for each well, using the negative control (media only) and positive control (bacteria without inhibitors) on the same plate as references. […] Vancomycin was used as positive bacterial inhibitor standards.

[6] = Cytotoxicity assay (Alamar Blue) on L6-cells; assay type: cell-based, rat; settings: rat
Method: as §1, §2

| IC50 [1] [nM] | IC50 [2] [nM] | MIC [4] [µg/mL] | MIC [5] [µg/mL] | SMILES | IC50 [3] [nM] | IC50 at 68 h [6] [nM] | IC50 ([3]; Rattus norvegicus, Myoblast, read-out: IC50 Concurrent (nM)) [nM] | IC50 ([3]; Rattus norvegicus, Myoblast, read-out: IC50 of reference drug) [nM] |
| --- | --- | --- | --- | --- | --- | --- | --- | --- |
| 14.1 | 3.7 |  |  | CCCCCCCC[C@H](NC(=O)[C@@H]1CCCN1C(=O)c1coc(-c2ccccc2)n1)C(=O)N[C@@H](CC(C)C)C(=O)NC(C)(C)C(=O)N[C@@H](CC(C)C)C(=O)N[C@@H](CC(C)C)C(=O)NC(C)(C)C(=O)NC(C)(C)C(=O)NCCC(=O)N[C@@H](C)CN(C)C [Compound 5906, (2S)-N-[(1S)-1-[(1-{[(1S)-1-{[(1S)-1-{[1-({1-[(2-{[(2S)-1-(dimethylamino)propan-2-yl]carbamoyl}ethyl)carbamoyl]-1-methylethyl}carbamoyl)-1-methylethyl]carbamoyl}-3-methylbutyl]carbamoyl}-3-methylbutyl]carbamoyl}-1-methylethyl)carbamoyl]-3-methylbutyl]-2-{[(2S)-1-(2-phenyl-1,3-oxazole-4-carbonyl)pyrrolidin-2-yl]formamido}decanamide] (X8-P[Gly(octyl)]L[Aib]LL[Aib][Aib][βAla]-{NH((S)CH(Me)CH2NMe2)}) | 445 |  |  |  |
| 41.1 | 9.9 | 4 (≈ 3.43 µM) |  | Cc1nc(C(=O)N2CCC[C@H]2C(=O)N[C@@H](CCC2CCCCC2)C(=O)N[C@@H](CC(C)C)C(=O)NC(C)(C)C(=O)N[C@@H](CC(C)C)C(=O)N[C@@H](CC(C)C)C(=O)NC(C)(C)C(=O)NC(C)(C)C(=O)NCCC(=O)NC2(CN(C)C)CCC2)co1 [Compound 6025, (2S)-2-[(2S)-4-cyclohexyl-2-{[(2S)-1-(2-methyl-1,3-oxazole-4-carbonyl)pyrrolidin-2-yl]formamido}butanamido]-N-(1-{[(1S)-1-{[(1S)-1-({1-[(1-{[2-({1-[(dimethylamino)methyl]cyclobutyl}carbamoyl)ethyl]carbamoyl}-1-methylethyl)carbamoyl]-1-methylethyl}carbamoyl)-3-methylbutyl]carbamoyl}-3-methylbutyl]carbamoyl}-1-methylethyl)-4-methylpentanamide] ({Oxazole4CO(2-Me)}-P[hCha]L[Aib]LL[Aib][Aib][βAla]-{NH(1-CH2NMe2-cBu)}) | 1910 |  |  |  |
|  | 4.1 | 8 (≈ 6.62 µM) | 8 (≈ 6.62 µM) | Cc1nc(C(=O)N2CCC[C@H]2C(=O)N[C@@H](CCC2CCCCC2)C(=O)N[C@@H](CC(C)C)C(=O)NC(C)(C)C(=O)N[C@@H](CC(C)C)C(=O)N[C@@H](CC(C)C)C(=O)NC(C)(C)C(=O)NC(C)(C)C(=O)NCCC(=O)NC2(CN3CCCCC3)CCC2)co1 [Compound 6483, (2S)-2-[(2S)-4-cyclohexyl-2-{[(2S)-1-(2-methyl-1,3-oxazole-4-carbonyl)pyrrolidin-2-yl]formamido}butanamido]-4-methyl-N-(1-methyl-1-{[(1S)-3-methyl-1-{[(1S)-3-methyl-1-({1-methyl-1-[(1-methyl-1-{[2-({1-[(piperidin-1-yl)methyl]cyclobutyl}carbamoyl)ethyl]carbamoyl}ethyl)carbamoyl]ethyl}carbamoyl)butyl]carbamyl}butyl]carbamoyl}ethyl)pentanamide] ({Oxazole4CO(2-Me)}-P[hCha]L[Aib]LL[Aib][Aib][βAla]-X2) |  | 486 |  |  |
|  |  |  | 32 (≈ 27.4 µM) | CC(C)C[C@H](NC(=O)[C@H](Cc1nccs1)NC(=O)[C@@H]1CCCN1C(=O)c1ccc(F)cc1)C(=O)NC(C)(C)C(=O)N[C@@H](CC(C)C)C(=O)N[C@@H](CC(C)C)C(=O)NC(C)(C)C(=O)NC(C)(C)C(=O)NCCC(=O)NC1(CN(C)C)CCC1 [Compound 7842, (2S)-N-(1-{[(1S)-1-{[(1S)-1-({1-[(1-{[2-({1-[(dimethylamino)methyl]cyclobutyl}carbamoyl)ethyl]carbamoyl}-1-methylethyl)carbamoyl]-1-methylethyl}carbamoyl)-3-methylbutyl]carbamoyl}-3-methylbutyl]carbamoyl}-1-methylethyl)-2-[(2S)-2-{[(2S)-1-(4-fluorobenzoyl)pyrrolidin-2-yl]formamido}-3-(1,3-thiazol-2-yl)propanamido]-4-methylpentanamide] ({Benzoyl(4-F)}-P[Ala(thiazol-2-yl)]L[Aib]LL[Aib][Aib][βAla]-{NH(1-CH2NMe2-cBu)}) |  |  |  |  |
|  |  | 16 (≈ 14.6 µM) | 8 (≈ 7.28 µM) | Cc1nc(C(=O)N2CCCC2C(=O)N[C@@H](CCC2CCCCC2)C(=O)N[C@@H](CC(C)C)C(=O)NC(C)(C)C(=O)N[C@@H](CC(C)C)C(=O)N[C@@H](CC(C)C)C(=O)NC(C)(C)C(=O)NC(C)(C)C(=O)NCCC(=O)NCCN)co1 (stereo in doubt) [Compound 7192, (2S)-N-(1-{[(1S)-1-{[(1S)-1-[(1-{[1-({2-[(2-aminoethyl)carbamoyl]ethyl}carbamoyl)-1-methylethyl]carbamoyl}-1-methylethyl)carbamoyl]-3-methylbutyl]carbamoyl}-3-methylbutyl]carbamoyl}-1-methylethyl)-2-[(2S)-4-cyclohexyl-2-{[(2S)-1-(2-methyl-1,3-oxazole-4-carbonyl)pyrrolidin-2-yl]formamido}butanamido]-4-methylpentanamide] |  |  |  |  |

More lines, now with the values behind:

| SMILES | IC50 [1] [nM] | IC50 [2] [nM] | MIC [4] [µg/mL] | MIC [5] [µg/mL] | IC50 [3] [nM] | IC50 at 68 h [6] [nM] | IC50 ([3]; Rattus norvegicus, Myoblast, read-out: IC50 Concurrent (nM)) [nM] | IC50 ([3]; Rattus norvegicus, Myoblast, read-out: IC50 of reference drug) [nM] |
| --- | --- | --- | --- | --- | --- | --- | --- | --- |
| Cc1nc(C(=O)N2CCC[C@H]2C(=O)N[C@@H](CC2CCCCC2)C(=O)N[C@@H](CC(C)C)C(=O)NC(C)(C)C(=O)N[C@@H](CC(C)C)C(=O)N[C@@H](CC(C)C)C(=O)NC(C)(C)C(=O)NC(C)(C)C(=O)NCCC(=O)NC2(CN(C)C)CCC2)co1 [Compound 7059, (2S)-2-[(2S)-3-cyclohexyl-2-{[(2S)-1-(2-methyl-1,3-oxazole-4-carbonyl)pyrrolidin-2-yl]formamido}propanamido]-N-(1-{[(1S)-1-{[(1S)-1-({1-[(1-{[2-({1-[(dimethylamino)methyl]cyclobutyl}carbamoyl)ethyl]carbamoyl}-1-methylethyl)carbamoyl]-1-methylethyl}carbamoyl)-3-methylbutyl]carbamoyl}-3-methylbutyl]carbamoyl}-1-methylethyl)-4-methylpentanamide] (HELM PEPTIDE1{[Cc1nc(C(=O)[*:2])co1].P.[Cha].L.[Aib].L.L.[Aib].[Aib].[bAla].[CN(C)CC1(N[*:1])CCC1]}$$$$V2.0) |  | 1.3 | 4 (≈ 3.47 µM) | 32 (≈ 27.7 µM) |  | 6850 |  |  |
| COc1cc([C@@H]2c3cc4c(cc3[C@H](O)[C@H]3COC(=O)[C@H]23)OCO4)cc(OC)c1OC [Podophyllotoxin, reference compound] |  |  |  |  |  |  | 19.3 | 50 ± 10 |
| Cc1nc(C(=O)N2CCC[C@H]2C(=O)N[C@@H](Cc2c[nH]c3ccccc23)C(=O)N[C@@H](CC(C)C)C(=O)NC(C)(C)C(=O)N[C@@H](CC(C)C)C(=O)N[C@@H](CC(C)C)C(=O)NC(C)(C)C(=O)NC(C)(C)C(=O)NCCC(=O)NC2(CN(C)C)CCC2)co1 [Compound 6779, (2S)-N-(1-{[(1S)-1-{[(1S)-1-({1-[(1-{[2-({1-[(dimethylamino)methyl]cyclobutyl}carbamoyl)ethyl]carbamoyl}-1-methylethyl)carbamoyl]-1-methylethyl}carbamoyl)-3-methylbutyl]carbamoyl}-3-methylbutyl]carbamoyl}-1-methylethyl)-2-[(2S)-3-(1H-indol-3-yl)-2-{[(2S)-1-(2-methyl-1,3-oxazole-4-carbonyl)pyrrolidin-2-yl]formamido}propanamido]-4-methylpentanamide] (HELM PEPTIDE1{[Cc1nc(C(=O)[*:2])co1].P.W.L.[Aib].L.L.[Aib].[Aib].[bAla].[CN(C)CC1(N[*:1])CCC1]}$$$$V2.0) | 203 | 27 |  | 8 (≈ 6.74 µM) |  | 6680 |  |  |
